Measurements taken from publication PMC7562898, “Homogeneous single-label cGMP detection platform for the functional study of nitric oxide-sensitive (soluble) guanylyl cyclases and cGMP-specific phosphodiesterases” (Scientific Reports, 2020).
Like-named read-outs stand apart in the source and are kept apart here.

Experiments:
[1] = tested on: monoclonal cGMP-specific antibody; test: Homogeneous competitive QRET cGMP detection with cGMP-specific antibody; type: binding; details: for recognition of the nucleotide by the antibody: nucleotide titration, data not shown
Procedure: All biochemical assays were performed in a 10 µL final volume using triplicate reactions and three individual experiments unless otherwise indicated. The non-enzymatic and real-time cGMP assays were performed in assay buffer 1 (20 mM HEPES, pH 7.5, 1 mM MgCl2, 0.005% γ-globulins, 0.01% Triton X-100), enzymatic end-point assays in assay buffer 2 (assay buffer 1 without 0.01% Triton X-100), and detection components ([…], antibody, and MT2) were added in the stop buffer (assay buffer 1 supplemented with 10 mM EDTA instead of 1 mM MgCl2). In all buffers, sGMP was equally detected. Buffers for end-point assay were optimized to avoid the used of Triton X-100 during the enzymatic sGC reaction, avoiding the progressive loss of heme, and by using the EDTA in stop buffer to chelate the enzyme essential MgCl2.
After initial assays, cGMP detection protocol was tested in cGMP titration with two antibody (2 ng/well and 4 ng/well) and two Eu(III)-cGMP (1 nM and 5 nM) concentrations. Titrated cGMP (0–250 µM) was added in 5 µL volume and detection solution containing Eu(III)-cGMP, cGMP antibody, and MT2 (1.2 µM or 2.2 µM) in 5 µL volume. Similar titrations were performed with other nucleotides (cAMP, GTP, ATP, ADP, and GMP). cGMP was also titrated in the presence of 0.5 mM GTP. In all of these assays, background controls were performed with six repeats and TRF-signals were monitored multiple times between 5 to 90 min to determine the TRF-signal stability.
Assays were performed with Eu(III)-cGMP concentration dependent individually fixed MT2 (1.2–3.2 µM) quencher concentration. TRF-signals were measured and the Eu(III)-cGMP equilibrium dissociation constant (Kd) for the cGMP-specific antibody was determined using linearized Cheng-Prusoff Equation[59].

[2] = tested on: PDEs in mouse brain homogenate; test: cGMP hydrolysis (PDE activity) in mouse brain homogenate; type: biochemical; details: 0.1 mg/ml homogenate, 50 µM cGMP, 15 min at 37 °C, 3 µM MT2; read-out: apparent IC50 of cGMP hydrolysis in mouse brain homogenate
Procedure: PDE inhibitors with varying specificity profile, BAY73-6691, sildenafil, and IBMX (0–500 µM), were assayed in a high-speed supernatants of mouse brain homogenates. Reactions were performed in 5 µL volume in the presence of 0.1 mg/ml of homogenate and 50 µM cGMP. After 15 min incubation at 37 °C, detection solution (0.4 µg/ml cGMP antibody, 5 nM Eu(III)-cGMP, and 3.0 µM MT2) was added and TRF-signals were recorded.

sGC [3] = target: T1, sGC (Homo sapiens, UniProt Q02108+Q02153); test: sGC activity assay, endpoint QRET cGMP detection; type: biochemical; details: for EC50: 2 ng sGC, 0.5 mM GTP, 30 min at 37 °C, read-out: EC50 of concentration dependent sGC activation; for effect on sGC activity at fixed saturating concentration: 10 µM NS2028, 10 µM DEA-NO; for fold increase for cGMP compared to untreated sGC: 100 µM gemfibrozil or 10 µM DEA-NO
T1 construct: Full-length sGC was purified from Sf9 cells as described previously; made in house; host or cells: Sf9 cells
T1 sequence (Q02108 1-690): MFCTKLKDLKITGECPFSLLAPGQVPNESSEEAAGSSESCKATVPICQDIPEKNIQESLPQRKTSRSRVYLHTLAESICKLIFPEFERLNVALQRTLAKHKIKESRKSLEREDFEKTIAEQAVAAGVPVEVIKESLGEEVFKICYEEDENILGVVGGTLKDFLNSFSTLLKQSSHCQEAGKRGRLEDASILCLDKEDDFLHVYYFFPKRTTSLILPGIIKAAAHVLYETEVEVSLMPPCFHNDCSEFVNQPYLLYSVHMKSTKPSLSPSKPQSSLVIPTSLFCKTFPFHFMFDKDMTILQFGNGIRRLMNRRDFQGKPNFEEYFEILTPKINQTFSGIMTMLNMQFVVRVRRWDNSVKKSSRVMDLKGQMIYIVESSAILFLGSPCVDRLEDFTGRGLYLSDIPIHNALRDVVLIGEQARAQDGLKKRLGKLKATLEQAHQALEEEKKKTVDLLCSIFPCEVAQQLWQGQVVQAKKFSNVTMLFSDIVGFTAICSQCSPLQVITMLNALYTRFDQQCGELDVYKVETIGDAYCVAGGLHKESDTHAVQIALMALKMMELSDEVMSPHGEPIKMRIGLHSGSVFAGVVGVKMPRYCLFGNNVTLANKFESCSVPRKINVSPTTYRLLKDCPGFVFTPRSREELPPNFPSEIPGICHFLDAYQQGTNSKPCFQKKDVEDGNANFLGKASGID
T1 sequence (Q02153 1-619): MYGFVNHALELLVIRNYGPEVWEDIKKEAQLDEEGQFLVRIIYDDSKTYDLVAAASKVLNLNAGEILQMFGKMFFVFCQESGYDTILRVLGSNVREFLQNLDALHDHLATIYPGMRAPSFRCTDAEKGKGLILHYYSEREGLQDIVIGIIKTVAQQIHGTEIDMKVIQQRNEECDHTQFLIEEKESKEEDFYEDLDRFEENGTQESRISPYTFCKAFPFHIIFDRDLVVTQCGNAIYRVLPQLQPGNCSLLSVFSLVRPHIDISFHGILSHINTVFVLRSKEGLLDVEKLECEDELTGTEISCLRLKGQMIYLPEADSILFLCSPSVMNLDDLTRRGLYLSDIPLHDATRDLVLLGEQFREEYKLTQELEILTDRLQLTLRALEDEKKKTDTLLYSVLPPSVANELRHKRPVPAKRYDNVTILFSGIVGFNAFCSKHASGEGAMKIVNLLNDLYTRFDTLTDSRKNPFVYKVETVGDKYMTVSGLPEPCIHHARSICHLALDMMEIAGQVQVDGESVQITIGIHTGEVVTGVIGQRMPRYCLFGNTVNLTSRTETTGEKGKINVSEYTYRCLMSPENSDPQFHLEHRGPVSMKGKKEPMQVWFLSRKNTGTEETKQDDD
Procedure: Optimized cGMP detection platform was applied to all enzymatic assays. For non-stimulated conditions, purified sGC enzyme (0.04–276 ng/well) was incubated with or without 0.5 mM GTP in the assay buffer 2 for 10 to 45 min at 37 °C in 5 µL volume. The reaction was stopped by adding 5 µL of detection solution (0.4 µg/ml cGMP antibody, 5 nM Eu(III)-cGMP, and 2.2 µM MT2) containing EDTA. For NO stimulated sGC activity, the same reactions were performed in the presence of 10 or 100 µM DEA-NO added with GTP. DEA-NO was always prepared from a 100 mM stock solution in 10 mM NaOH, which was stored at − 80 °C. TRF-signals were always monitored multiple times between 5 to 90 min to determine the TRF-signal stability.
In assays where dose-dependent effect of three sGC activators, DEA-NO, YC-1, and riociguat, were tested, the compounds (0–100 µM) were incubated with 2 ng sGC. Reactions were initiated by adding 0.5 mM GTP to reach 5 µL volume and incubated for 30 min at 37 °C. Reactions were stopped by adding 5 µL of detection solution and TRF-signals were recorded. To evaluate the linearity of the cGMP production by sGC, 3 or 12 ng of sGC were used for resting conditions and 0.5 ng for 100 µM DEA-NO activated sGC. Assays were performed in separate plates and reactions were stopped at indicated time points (5–60 min), before TRF-signal monitoring as above.
For assays containing fixed concentration of sGC regulators, 5 ng of sGC was incubated with one, or the indicated combination of following molecules: 10 µM NS2028, 100 nM BAY58-2667, 100 µM gemfibrozil, 10 µM BAY41-2272, 100 µM Cbi, 10 µM DEA-NO or SNP with glutathione (100 µM each). 5 µL reactions containing 0.5 mM GTP were incubated for 10 min at 37 °C and stopped by adding the detection components. TRF-signals were recorded as described above.
Cell lysate interferences were evaluated in an endpoint assay with different amounts of sGC (0.008–166.7 ng) and 0.07 or 0.14 mg/ml of COS7 cell lysate. sGC/lysate mixture was supplemented with 0.5 mM GTP in the presence or absence of 10 µM DEA-NO, and 5 µL reaction was incubated for 10 min at 37 °C. Detection components were thereafter added and TRF-signals were monitored as above.
Reproducibility and HTS compatibility were determined by running Z’-factor assay using 24 sGC reactions with or without activity modulation in three consecutive days. Assays were performed with fixed sGC concentration (5 ng/well) and sGC activation was performed using gemfibrozil (100 µM) or DEA NONOate (10 µM). All assays were initiated by the addition of 0.5 mM GTP to obtain a final 5 µL reaction volume, 37 °C for 10 min. Detection solution was added and TRF-signals were monitored as previously. Z’-factors were calculated using sGC basal activity as negative and activated reactions (NO or gemfibrozil) as positive controls.
In parallel to all assays, changes in TRF-signal in response to different concentrations of exogenously added cGMP were recorded to generate a cGMP standard curve. The cGMP standard was created using 1:3 dilution series to maximize the linear part of the standard, which was used to calculate the amount of cGMP generated by sGC during the reaction. Only at the linear area, the TRF-signal relation to cGMP concentration can be determined.

sGC [4] = target: T1, sGC; design: method as in PMID 26777256; details: cited from earlier work
PDE5A = tested on: PDE5A; design: method as in PMID 10574925; details: read-out: Km of PDE5A for cGMP; cited from earlier work

## Nc1ncnc2c1ncn2[C@@H]1O[C@H](COP(=O)(O)OP(=O)(O)O)[C@@H](O)[C@H]1O [ADP]
[1]
  recognition of the nucleotide by the antibody: could not be recognized by the antibody

## Nc1ncnc2c1ncn2[C@@H]1O[C@H](COP(=O)(O)OP(=O)(O)OP(=O)(O)O)[C@@H](O)[C@H]1O [ATP]
[1]
  recognition of the nucleotide by the antibody: could not be recognized by the antibody

## C[C@H](Cc1nc2c(cnn2-c2ccccc2Cl)c(=O)[nH]1)C(F)(F)F [BAY73-6691]
[2]
  IC50: 81.3 ± 4.8 µM

## CCN(CC)/[N+]([O-])=N/O.CCNCC [DEA-NO, diethylamine NONOate]
sGC [3]
  EC50: 0.93 ± 0.1 µM
sGC [3]; 5 ng sGC, 10 min at 37 °C
  effect on sGC activity at fixed saturating concentration: largest increase in sGC activity
sGC [3]; 10 µM DEA-NO, 5 ng sGC/well, 10 min at 37 °C, 0.14 mg/ml COS7 lysate
  NO-stimulated sGC specific activity in the presence of COS7 lysate: 19.3 ± 4.2 µmol/mg/min
sGC [3]; 10 µM DEA-NO, 5 ng sGC/well, 10 min at 37 °C, buffer
  NO-stimulated sGC specific activity: 4.8 ± 1.0 µmol/min/mg
sGC [3]; 5 ng sGC/well, 10 min at 37 °C
  fold increase for cGMP compared to untreated sGC: ~50 fold

## Nc1nc2c(ncn2[C@@H]2O[C@H](COP(=O)(O)OP(=O)(O)OP(=O)(O)O)[C@@H](O)[C@H]2O)c(=O)[nH]1 [GTP, guanosine triphosphate]
[1]
  specificity of the antibody for cGMP over the nucleotide: 1000 fold
sGC [4]; NO-activated sGC, read-out: Km for GTP, NO-activated sGC
  Km: < 75 µM
sGC [4]; resting sGC, read-out: Km for GTP, resting sGC
  Km: ~220 µM

## CC(C)Cn1c(=O)n(C)c(=O)c2[nH]cnc21 [IBMX, 3-isobutyl-1-methylxanthine]
[2]
  IC50: 9.9 ± 0.6 µM

## O=c1onc2n1-c1cc(Br)ccc1OC2 [NS2028, 8-bromo-4H-2,5-dioxa-3,9b-diaza-cyclopenta[a]naphthalen-1-one]
sGC [3]; 5 ng sGC, 10 min at 37 °C
  effect on sGC activity at fixed saturating concentration: no significant effect
sGC [3]; 10 µM NS2028 with 100 nM BAY58-2667 or 100 µM gemfibrozil, 5 ng sGC, 10 min at 37 °C
  effect on sGC activation when assayed together with BAY58-2667 or gemfibrozil: increased the activation

## OCc1ccc(-c2nn(Cc3ccccc3)c3ccccc23)o1 [YC-1, 3-(5′-hydroxymethyl-2′-furyl)-1-benzyl indazole]
sGC [3]
  EC50: 5.7 ± 1 µM

## Nc1ncnc2c1ncn2[C@@H]1O[C@@H]2COP(=O)(O)O[C@H]2[C@H]1O [cAMP, cyclic adenosine monophosphate]
[1]
  recognition of the nucleotide by the antibody: could not be recognized by the antibody

## Nc1nc2c(ncn2[C@@H]2O[C@@H]3COP(=O)(O)O[C@H]3[C@H]2O)c(=O)[nH]1 [cGMP, Cyclic 3´,5´-guanosine monophosphate]
[1]; 1 nM Eu(III)-cGMP and 2 ng of antibody/well, read-out: EC50 value of cGMP titration (displacement of Eu(III)-cGMP from antibody)
  EC50: 0.72 ± 0.07 µM
[1]; 5 nM Eu(III)-cGMP and 4 ng of antibody/well, read-out: EC50 of cGMP titration (displacement of Eu(III)-cGMP from antibody)
  EC50: 1.8 ± 0.22 µM
PDE5A
  Km: ~2 µM

## Cc1ccc(C)c(OCCCC(C)(C)C(=O)O)c1 [gemfibrozil]
sGC [3]; 5 ng sGC/well, 10 min at 37 °C
  fold increase for cGMP compared to untreated sGC: approximately 20 fold

## COC(=O)N(C)c1c(N)nc(-c2nn(Cc3ccccc3F)c3ncccc23)nc1N [riociguat]
sGC [3]
  EC50: 0.26 ± 0.1 µM

## CCCc1nn(C)c2c(=O)[nH]c(-c3cc(S(=O)(=O)N4CCN(C)CC4)ccc3OCC)nc12 [sildenafil]
[2]
  IC50: 45.2 ± 6.8 µM
